In patent US9056851B2, “Thiolactone antibiotics” (priority 2011, dated 2015):
≈ marks a conversion by molar mass, not a printed value.

Tests used:
B. pseudomallei Bp82z66 = assay: microbe, parasite or virus in culture; format: cell-based; conditions: Burkholderia pseudomallei, BP82Z66, read-out: MIC (μg/ml) B. pseudomallei
F. tularensis LVS = assay: microbe, parasite or virus in culture; format: cell-based; conditions: Francisella tularensis, read-out: MIC (μg/ml) F. tu
M. tuberculosis H37Rv = assay: MIC against M. tuberculosis; format: cell-based; conditions: Mycobacterium tuberculosis; MIC99; H37Rv; read-out: MIC (μg/ml) M. tb (MIC99)
S. aureus RN4220 = assay: MIC against S. aureus RN4220 (MSSA); format: cell-based; conditions: Staphylococcus aureus, MIC90, read-out: MIC (μg/ml) Staph. aureus RN4220 MSSA
S. aureus BAA1762 = assay: MIC against S. aureus BAA1762 (MRSA); format: cell-based; conditions: Staphylococcus aureus; MIC90; read-out: MIC (μg/ml) Staph. aureus BAA1762 MRSA
B. thialandensis Bt38 = assay: MIC against B. thialandensis; format: cell-based; conditions: read-out: MIC (μg/ml) B. thialandensis Bt.38 (efflux^−)
Y. pestis A1122 = assay: microbe, parasite or virus in culture; format: cell-based; conditions: Yersinia pestis, A1122, read-out: MIC (μg/ml) Y. pestis
M. smegmatis MC^2155 = assay: MIC against M. smegmatis; format: cell-based; conditions: Mycolicibacterium smegmatis, MC^2155; MIC90; read-out: MIC (μg/ml) M. smeg
wild-type apo-KasA = wild-type apo-KasA (Mycobacterium tuberculosis, UniProt P9WQD9); assay: biochemical; format: binding
Sequence of wild-type apo-KasA (P9WQD9 whole entry): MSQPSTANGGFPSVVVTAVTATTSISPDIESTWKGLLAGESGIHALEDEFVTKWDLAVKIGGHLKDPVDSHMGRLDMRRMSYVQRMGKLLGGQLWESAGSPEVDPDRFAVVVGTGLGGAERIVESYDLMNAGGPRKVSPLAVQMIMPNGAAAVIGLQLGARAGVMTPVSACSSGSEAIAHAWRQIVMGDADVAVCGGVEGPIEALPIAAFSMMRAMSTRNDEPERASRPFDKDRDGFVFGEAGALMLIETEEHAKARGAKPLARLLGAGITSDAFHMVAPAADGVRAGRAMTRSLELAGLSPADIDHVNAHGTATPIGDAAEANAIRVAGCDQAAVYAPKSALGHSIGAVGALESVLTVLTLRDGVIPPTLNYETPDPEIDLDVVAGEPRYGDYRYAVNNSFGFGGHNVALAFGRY

| SMILES | MIC (B. pseudomallei Bp82z66) | MIC (F. tularensis LVS) | MIC99 (M. tuberculosis H37Rv) | MIC (S. aureus RN4220) | MIC (S. aureus BAA1762) | MIC (B. thialandensis Bt38) | MIC (Y. pestis A1122) | MIC (M. smegmatis MC^2155) | Ki (wild-type apo-KasA) | Kd (wild-type apo-KasA; Kd (μM) apo-KasA, Table 1, wild-type apo-KasA, fluorescence spectroscopy) |
| --- | --- | --- | --- | --- | --- | --- | --- | --- | --- | --- |
| C=C/C(C)=C/[C@@]1(C)SC(=O)C(C(=O)CCCCc2ccc(-c3ccccc3)cc2)=C1O [TLM45] | 4.58 µg/mL (≈ 10.6 µM) | 0.21 µg/mL (≈ 0.485 µM) | 50 µg/mL (≈ 116 µM) | 0.5 µg/mL (≈ 1.16 µM) | 2 µg/mL (≈ 4.62 µM) | – | – | – | – | – |
| C=C/C(C)=C/[C@@]1(C)SC(=O)C(CCCCn2cc(CNC(=O)c3ccc(NS(=O)(=O)c4ccc(F)cc4)cc3)nn2)=C1O [TLM34] | – | 250 µg/mL (≈ 400 µM) | 12.5 µg/mL (≈ 20 µM) | > 64 µg/mL | > 100 µg/mL | 250 µg/mL (≈ 400 µM) | 250 µg/mL (≈ 400 µM) | – | – | – |
| C=C/C(C)=C/[C@@]1(C)SC(=O)C(C(=O)CCCCN=[N+]=[N-])=C1O [TLM44] | – | – | – | 16 µg/mL (≈ 49.8 µM) | 16 µg/mL (≈ 49.8 µM) | – | – | – | – | – |
| C=C/C(C)=C/[C@@]1(C)SC(=O)C(CCCCc2ccc(Cl)cc2)=C1O [TLM7] | – | 1.73 µg/mL (≈ 4.77 µM) | 25 µg/mL (≈ 68.9 µM) | 64 µg/mL (≈ 176 µM) | 50 µg/mL (≈ 138 µM) | 81 µg/mL (≈ 223 µM) | 250 µg/mL (≈ 689 µM) | > 100 µg/mL | – | – |
| C=C/C(C)=C/[C@@]1(C)SC(=O)C(CCCCN=[N+]=[N-])=C1O [TLM32] | – | 15.3 µg/mL (≈ 52.3 µM) | 50 µg/mL (≈ 170 µM) | > 64 µg/mL | > 100 µg/mL | 250 µg/mL (≈ 852 µM) | 250 µg/mL (≈ 852 µM) | – | – | – |
| C=C/C(C)=C/[C@@]1(C)SC(=O)C(C(=O)CCC)=C1O [TLM38] | 171 µg/mL (≈ 644 µM) | 1.82 µg/mL (≈ 6.83 µM) | 12.5 µg/mL (≈ 46.9 µM) | 16 µg/mL (≈ 60.1 µM) | 32 µg/mL (≈ 120 µM) | – | – | – | – | – |
| C=C/C(C)=C/[C@@]1(C)SC(=O)C(CCCN=[N+]=[N-])=C1O [TLM10] | – | 23.5 µg/mL (≈ 84.1 µM) | 12.5 µg/mL (≈ 44.7 µM) | > 64 µg/mL | > 100 µg/mL | 250 µg/mL (≈ 895 µM) | 250 µg/mL (≈ 895 µM) | – | 233 ± 7 µM | 233 ± 7 µM |
| C=C/C(C)=C/[C@@]1(C)SC(=O)C=C1OCC(=O)NCCn1cc(CNC(=O)[C@H](O)C(C)(C)CO)nn1 [TLM26] | 150 µg/mL (≈ 295 µM) | 159 µg/mL (≈ 313 µM) | > 100 µg/mL | > 64 µg/mL | > 64 µg/mL | – | – | – | – | – |
| C=C/C(C)=C/[C@@]1(C)SC(=O)C(CCc2ccc(Cl)cc2)=C1O [TLM31] | – | 3.1 µg/mL (≈ 9.24 µM) | 25 µg/mL (≈ 74.7 µM) | 64 µg/mL (≈ 191 µM) | 100 µg/mL (≈ 299 µM) | 250 µg/mL (≈ 747 µM) | 250 µg/mL (≈ 747 µM) | – | – | – |
| C=C/C(C)=C/[C@@]1(C)SC(=O)C(C(C)=O)=C1O [TLM35] | 155 µg/mL (≈ 649 µM) | 8.78 µg/mL (≈ 36.8 µM) | 12.5 µg/mL (≈ 52.5 µM) | 64 µg/mL (≈ 269 µM) | 32 µg/mL (≈ 134 µM) | – | – | – | – | – |
| C=C/C(C)=C/[C@@]1(C)SC(=O)C(CCCCc2ccc(-c3ccccc3)cc2)=C1O [TLM9] | – | 1.97 µg/mL (≈ 4.88 µM) | 50 µg/mL (≈ 124 µM) | 16 µg/mL (≈ 39.5 µM) | 25 µg/mL (≈ 61.8 µM) | 145 µg/mL (≈ 359 µM) | 250 µg/mL (≈ 618 µM) | – | – | – |
| C=C/C(C)=C/[C@@]1(C)SC(=O)C(CCCCc2ccc(F)cc2)=C1O [TLM6] | – | 3.15 µg/mL (≈ 9.1 µM) | 25 µg/mL (≈ 72.2 µM) | > 64 µg/mL | 75 µg/mL (≈ 216 µM) | 250 µg/mL (≈ 722 µM) | 250 µg/mL (≈ 722 µM) | > 100 µg/mL | – | – |
| C=C/C(C)=C/[C@@]1(C)SC(=O)C=C1O [TLM2, 5R-(+)-3-Demethylthiolactomycin] | – | 124 µg/mL (≈ 631 µM) | > 100 µg/mL | 150 µg/mL (≈ 764 µM) | 100 µg/mL (≈ 509 µM) | 148 µg/mL (≈ 756 µM) | 250 µg/mL (≈ 1270 µM) | > 100 µg/mL | – | – |
